Data: PubChem BioAssay (NCI)
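Values below derive from 48-hour exposures of cells grown in 96-well plates, with endpoints linearly interpolated between the two concentrations bracketing the appropriate inhibition level. TGI: total growth inhibition.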

Legend:
Test in all cases: NCI-60 cell line screen, 48 h
TK-10 renal = test system: TK-10 renal
SF-268 CNS = test system: SF-268 CNS
OVCAR-5 ovarian = test system: OVCAR-5 ovarian
NCI-H522 lung = test system: NCI-H522 lung
786-0 renal = test system: 786-0 renal
SNB-19 CNS = test system: SNB-19 CNS
RXF-631 renal = test system: RXF-631 renal
SK-MEL-2 melanoma = test system: SK-MEL-2 melanoma
K-562 leukemia = test system: K-562 leukemia
SK-MEL-28 melanoma = test system: SK-MEL-28 melanoma
SK-MEL-5 melanoma = test system: SK-MEL-5 melanoma
COLO 205 colon = test system: COLO 205 colon
HOP-92 NSCLC = test system: HOP-92 NSCLC
A549 NSCLC = test system: A549 NSCLC
UO-31 renal = test system: UO-31 renal
EKVX NSCLC = test system: EKVX NSCLC
HT29 colon = test system: HT29 colon
MALME-3M melanoma = test system: MALME-3M melanoma
CCRF-CEM leukemia = test system: CCRF-CEM leukemia
LOX IMVI melanoma = test system: LOX IMVI melanoma
HCT-116 colon = test system: HCT-116 colon
DLD-1 colon = test system: DLD-1 colon
UACC-257 melanoma = test system: UACC-257 melanoma
NCI-H460 lung = test system: NCI-H460 lung
SF-295 CNS = test system: SF-295 CNS
DMS 114 small cell lung = test system: DMS 114 small cell lung
DMS 273 small cell lung = test system: DMS 273 small cell lung
M14 melanoma = test system: M14 melanoma
RXF 393 renal = test system: RXF 393 renal
HCT-15 colon = test system: HCT-15 colon
HL-60(TB) leukemia = test system: HL-60(TB) leukemia
U251 CNS = test system: U251 CNS
ACHN renal = test system: ACHN renal
HOP-62 NSCLC = test system: HOP-62 NSCLC
HCC-2998 colon = test system: HCC-2998 colon
NCI-H226 lung = test system: NCI-H226 lung
M19-MEL melanoma = test system: M19-MEL melanoma
XF 498 CNS = test system: XF 498 CNS
LXFL 529 NSCLC = test system: LXFL 529 NSCLC
SW-620 colon = test system: SW-620 colon
MOLT-4 leukemia = test system: MOLT-4 leukemia
OVCAR-8 ovarian = test system: OVCAR-8 ovarian
SNB-75 CNS = test system: SNB-75 CNS
HOP-18 NSCLC = test system: HOP-18 NSCLC
SR leukemia = test system: SR leukemia
KM12 colon = test system: KM12 colon
UACC-62 melanoma = test system: UACC-62 melanoma
OVCAR-3 ovarian = test system: OVCAR-3 ovarian
SNB-78 CNS = test system: SNB-78 CNS
SK-OV-3 ovarian = test system: SK-OV-3 ovarian
IGROV1 ovarian = test system: IGROV1 ovarian
SN12C renal = test system: SN12C renal
SF-539 CNS = test system: SF-539 CNS
KM20L2 colon = test system: KM20L2 colon
NCI-H23 lung = test system: NCI-H23 lung
RPMI-8226 leukemia = test system: RPMI-8226 leukemia
OVCAR-4 ovarian = test system: OVCAR-4 ovarian
CAKI-1 renal = test system: CAKI-1 renal
A498 renal = test system: A498 renal

COc1cc2c3c(c1OC)-c1ccccc1C(C(O)c1ccccc1)C3N(C)CC2 (stereo not given)
TGI (TK-10 renal): > 100 µM
TGI (SF-268 CNS): > 100 µM
TGI (OVCAR-5 ovarian): > 100 µM
TGI (NCI-H522 lung): 35.9 µM
TGI (786-0 renal): > 100 µM
TGI (SNB-19 CNS): > 100 µM
TGI (RXF-631 renal): 65.8 µM
TGI (SK-MEL-2 melanoma): 88.2 µM
TGI (K-562 leukemia): 76.4 µM
TGI (SK-MEL-28 melanoma): 41.6 µM
TGI (SK-MEL-5 melanoma): 28 µM
TGI (COLO 205 colon): 29.6 µM
TGI (HOP-92 NSCLC): > 100 µM
TGI (A549 NSCLC): > 100 µM
TGI (UO-31 renal): 68.3 µM
TGI (EKVX NSCLC): > 100 µM
TGI (HT29 colon): 72 µM
TGI (MALME-3M melanoma): 35 µM
TGI (CCRF-CEM leukemia): > 100 µM
TGI (LOX IMVI melanoma): > 100 µM
TGI (HCT-116 colon): 39.2 µM
TGI (DLD-1 colon): 66.1 µM
TGI (UACC-257 melanoma): 40.6 µM
TGI (NCI-H460 lung): 90 µM
TGI (SF-295 CNS): > 100 µM
TGI (DMS 114 small cell lung): 43.9 µM
TGI (DMS 273 small cell lung): 64.6 µM
TGI (M14 melanoma): 35.6 µM
TGI (RXF 393 renal): 29.1 µM
TGI (HCT-15 colon): 76.9 µM
TGI (HL-60(TB) leukemia): 43.6 µM
TGI (U251 CNS): > 100 µM
TGI (ACHN renal): > 100 µM
TGI (HOP-62 NSCLC): 71.6 µM
TGI (HCC-2998 colon): 33.7 µM
TGI (NCI-H226 lung): 72.8 µM
TGI (M19-MEL melanoma): > 100 µM
TGI (XF 498 CNS): 52.3 µM
TGI (LXFL 529 NSCLC): > 100 µM
TGI (SW-620 colon): > 100 µM
TGI (MOLT-4 leukemia): 89 µM
TGI (OVCAR-8 ovarian): > 100 µM
TGI (SNB-75 CNS): > 100 µM
TGI (HOP-18 NSCLC): > 100 µM
TGI (SR leukemia): 47 µM
TGI (KM12 colon): 72.4 µM
TGI (UACC-62 melanoma): > 100 µM
TGI (OVCAR-3 ovarian): > 100 µM
TGI (SNB-78 CNS): > 100 µM
TGI (SK-OV-3 ovarian): > 100 µM
TGI (IGROV1 ovarian): 80.6 µM
TGI (SN12C renal): 99.2 µM
TGI (SF-539 CNS): 42.3 µM
TGI (KM20L2 colon): 48.8 µM
TGI (NCI-H23 lung): > 100 µM
TGI (RPMI-8226 leukemia): 82.7 µM

Cc1cccc(-c2cc(=O)c3cc(C)c(C)c(C(=O)O)c3o2)c1
TGI (TK-10 renal): > 100 µM
TGI (OVCAR-5 ovarian): > 100 µM
TGI (NCI-H522 lung): > 100 µM
TGI (786-0 renal): > 100 µM
TGI (SNB-19 CNS): > 100 µM
TGI (RXF-631 renal): > 100 µM
TGI (SK-MEL-2 melanoma): > 100 µM
TGI (K-562 leukemia): > 100 µM
TGI (SK-MEL-28 melanoma): > 100 µM
TGI (SK-MEL-5 melanoma): > 100 µM
TGI (COLO 205 colon): > 100 µM
TGI (HOP-92 NSCLC): > 100 µM
TGI (A549 NSCLC): > 100 µM
TGI (UO-31 renal): > 100 µM
TGI (EKVX NSCLC): > 100 µM
TGI (HT29 colon): > 100 µM
TGI (MALME-3M melanoma): > 100 µM
TGI (CCRF-CEM leukemia): > 100 µM
TGI (LOX IMVI melanoma): > 100 µM
TGI (HCT-116 colon): > 100 µM
TGI (DLD-1 colon): > 100 µM
TGI (UACC-257 melanoma): > 100 µM
TGI (NCI-H460 lung): > 100 µM
TGI (SF-295 CNS): > 100 µM
TGI (DMS 114 small cell lung): > 100 µM
TGI (DMS 273 small cell lung): > 100 µM
TGI (M14 melanoma): > 100 µM
TGI (HCT-15 colon): > 100 µM
TGI (HL-60(TB) leukemia): > 100 µM
TGI (U251 CNS): > 100 µM
TGI (ACHN renal): > 100 µM
TGI (OVCAR-4 ovarian): > 100 µM
TGI (HOP-62 NSCLC): > 100 µM
TGI (HCC-2998 colon): > 100 µM
TGI (NCI-H226 lung): > 100 µM
TGI (M19-MEL melanoma): > 100 µM
TGI (XF 498 CNS): > 100 µM
TGI (LXFL 529 NSCLC): > 100 µM
TGI (SW-620 colon): > 100 µM
TGI (MOLT-4 leukemia): > 100 µM
TGI (OVCAR-8 ovarian): > 100 µM
TGI (SNB-75 CNS): > 100 µM
TGI (HOP-18 NSCLC): > 100 µM
TGI (SR leukemia): > 100 µM
TGI (KM12 colon): > 100 µM
TGI (CAKI-1 renal): > 100 µM
TGI (UACC-62 melanoma): > 100 µM
TGI (OVCAR-3 ovarian): > 100 µM
TGI (SNB-78 CNS): > 100 µM
TGI (SK-OV-3 ovarian): > 100 µM
TGI (IGROV1 ovarian): > 100 µM
TGI (SN12C renal): > 100 µM
TGI (SF-539 CNS): > 100 µM
TGI (KM20L2 colon): > 100 µM
TGI (NCI-H23 lung): > 100 µM
TGI (RPMI-8226 leukemia): > 100 µM

Cc1nc2c(nc1C)C(=O)C1=C(C2=O)C2C=CC1CC2
TGI (TK-10 renal): > 55.9 µM
TGI (SF-268 CNS): 12.3 µM
TGI (OVCAR-5 ovarian): 36.9 µM
TGI (NCI-H522 lung): 5.91 µM
TGI (786-0 renal): 24.8 µM
TGI (SNB-19 CNS): > 61.2 µM
TGI (RXF-631 renal): 13.9 µM
TGI (SK-MEL-2 melanoma): 29 µM
TGI (K-562 leukemia): 6.15 µM
TGI (SK-MEL-28 melanoma): 35.6 µM
TGI (SK-MEL-5 melanoma): 4.82 µM
TGI (COLO 205 colon): 29.8 µM
TGI (HOP-92 NSCLC): 4.48 µM
TGI (A549 NSCLC): 41.5 µM
TGI (UO-31 renal): 26.1 µM
TGI (EKVX NSCLC): 18.9 µM
TGI (HT29 colon): 41.7 µM
TGI (MALME-3M melanoma): 24.4 µM
TGI (CCRF-CEM leukemia): 5.9 µM
TGI (A498 renal): 98.7 µM
TGI (LOX IMVI melanoma): 6.14 µM
TGI (HCT-116 colon): 3.12 µM
TGI (DLD-1 colon): 21.6 µM
TGI (UACC-257 melanoma): 14.5 µM
TGI (NCI-H460 lung): 39.8 µM
TGI (SF-295 CNS): 25 µM
TGI (DMS 114 small cell lung): 3.71 µM
TGI (DMS 273 small cell lung): 29.8 µM
TGI (M14 melanoma): 27.3 µM
TGI (RXF 393 renal): 18.5 µM
TGI (HCT-15 colon): 38.1 µM
TGI (HL-60(TB) leukemia): 4.26 µM
TGI (U251 CNS): 10.1 µM
TGI (ACHN renal): 24.9 µM
TGI (OVCAR-4 ovarian): 3.5 µM
TGI (HOP-62 NSCLC): 53.9 µM
TGI (HCC-2998 colon): > 62.1 µM
TGI (NCI-H226 lung): 30.8 µM
TGI (M19-MEL melanoma): 3.46 µM
TGI (XF 498 CNS): 14.5 µM
TGI (LXFL 529 NSCLC): 3.19 µM
TGI (SW-620 colon): 8.09 µM
TGI (MOLT-4 leukemia): 5.38 µM
TGI (OVCAR-8 ovarian): 10.8 µM
TGI (SNB-75 CNS): 61.6 µM
TGI (HOP-18 NSCLC): 30.2 µM
TGI (KM12 colon): 33.3 µM
TGI (CAKI-1 renal): 37.6 µM
TGI (UACC-62 melanoma): 12.3 µM
TGI (OVCAR-3 ovarian): 17.3 µM
TGI (SNB-78 CNS): 10.6 µM
TGI (SK-OV-3 ovarian): > 96.3 µM
TGI (IGROV1 ovarian): 9.93 µM
TGI (SN12C renal): 32.4 µM
TGI (SF-539 CNS): 26.9 µM
TGI (KM20L2 colon): 52.8 µM
TGI (NCI-H23 lung): 19.6 µM
TGI (RPMI-8226 leukemia): 7.35 µM
